Tests used:
Type in all cases: cell-based, Marinobacter aquaeoli VT8
AlkR protein [1] = experiment: Alkane induction assay in E. coli JM109 carrying psb4K5-alkR-mRFP and rhamnose-inducible psb3C5-rha-weak alkL (or mock psb3C5-rha) plasmid; details: for expression of red fluorescent protein (mean fluorescence intensity) compared to no rhamnose addition: AlkL plasmid, 0.01% (w/v) rhamnose then 1% (v/v) n-tetradecane, 6 h after induction, FIG. 14
Experimental: (§1) E. coli JM109 carrying the psb4K5-alkR-mRFP plasmid was cultured overnight at 37° C. and 125-150 rpm in 3 mL of LB medium containing 50 μg/mL kanamycin. The overnight culture was diluted 1000-fold in LB medium in a 100 mL Hinton's flask and cultured at 37° C. To induce the expression of red fluorescent protein, 1% (v/v) of the various indicated hydrocarbons was added to the culture when the absorbance at 600 nm (O.D.600) reached about 0.6. At 0, 3, 6, 9, and 12 hours after the induction, 500 μL of the abovementioned bacterial culture was collected and centrifuged to obtain a cell pellet, which was washed twice and resuspended with phosphate buffer saline (PBS). Flow cytometry (BD FACSCanto II) was used to measure the mean fluorescence intensity of the cells and the distribution of cells with different fluorescence intensities (an excitation wavelength at 532 nm and an emission wavelength at 588 nm). For the E. coli JM109 that additionally carrying an expression vector of an alkane transporter, rhamnose was first added to the bacterial culture at an O.D.600 of about 0.6, and 1% (v/v) of the various indicated hydrocarbons was added three hours thereafter.
This characteristic might prevent the recombinant microorganism including the CYP153A operon from being induced by the medium-chain or long-chain alkanes or medium-chain or long-chain fatty acid methyl esters and producing the medium-chain or long-chain alkane terminal oxidation products. In order to promote the entry of medium-chain or long-chain alkanes into cells, the recombinant microorganism of the present invention may further express an alkane transporter. The AlkL protein of P. putida GPol is an exemplary alkane transporter used in this example to investigate the effects of alkane transporter expression on the uptake of medium-chain or long-chain alkanes or medium-chain or long-chain fatty acid methyl esters by the recombinant microorganisms. The AlkL protein is cytotoxic and its expression should be tightly regulated. […] At 6 hours after the induction, the mean fluorescence intensity of E. coli cells was measured by flow cytometry.
The AlkL protein was also tested for the ability to promote the uptake of various medium-chain or long-chain alkanes and methyl laurate by microbial cells. […] After 3 hours of incubation, 1% (v/v) n-octane, n-decane, n-dodecane, n-tetradecane, n-hexadecane, n-octadecane, or methyl laurate was added to induce the expression of red fluorescent protein, and the mean fluorescence intensity and fluorescence distribution of E. coli cells were measured by flow cytometry 6 hours after the induction. […]

AlkR protein [2] = experiment: Alkane induction assay: mRFP reporter in E. coli JM109 carrying psb4K5-alkR-mRFP plasmid (flow cytometry)
Experimental: as §1
First, E. coli JM109 was transformed with the psb4K5-alkR-mRFP plasmid shown in FIG. 1, which was a reporter plasmid including the alkR gene, the gene encoding the red fluorescent protein, and the promoter thereof. […] At 0, 3, 6, 9, and 12 hours after the induction, the mean fluorescence intensity and fluorescence distribution of E. coli cells were measured by flow cytometry. […]
It was also studied whether the medium-chain or long-chain alkane terminal oxidation products would inhibit the activating effect of the AlkR protein on gene expression. In the alkane induction assay using n-dodecane as the inducer, 0.1% (v/v) or 1% (v/v) 1-dodecanol was additionally added to the E. coli culture, and the mean fluorescence intensity of the E. coli cells was measured at 6 and 12 hours after the induction, with the results shown in FIG. 10.

CYP153A operon [3] = experiment: n-Octane-induced 1-octanol production by recombinant E. coli carrying pBBR1-CYPLR plasmid (gas chromatography); details: 1% (v/v) n-octane; 12 h after induction; pBBR1-CYPLR vs pBBR1-alkR plasmid; FIG. 13
Experimental: The medium-chain or long-chain alkane terminal oxidation product in the sample was analyzed qualitatively and quantitatively by gas chromatography. The analysis of alkanols and alkanediols was described as follows, with 1-octanol taken as example. 10 mg of 1,8-octanediol was added as an internal standard to 10 mL of the collected bacterial culture, and the mixture was extracted twice with double volumes of ethyl acetate. […] The obtained product was analyzed for composition by Varian CP-3800 gas chromatograph equipped with a DB-5 column and a flame ionization detector (FID). […] Alkanoic acids, alkanedioic acids, or alcohol acids were analyzed similarly as described above. In one embodiment of the present invention, 12-hydroxydodecanoic acid was analyzed using dodecanol as the internal standard.
It was studied whether the recombinant E. coli carrying the reconstructed CYP153A operon from M. aquaeoli VT8 would be induced to express the cytochrome P450 with oxidative activity and produce medium-chain or long-chain alkane terminal oxidation products in response to medium-chain or long-chain alkanes. […] At 12 hours after the induction, the production of 1-octanol in the bacterial culture was analyzed by gas chromatography.

CYP153A operon [4] = experiment: CYP153A expression in recombinant E. coli carrying pBBR1-CYPLR plasmid (SDS-PAGE, CO difference spectroscopy); details: 1% (v/v) methyl laurate, pBBR1-CYPLR vs pBBR1-alkR plasmid
Experimental: E. coli JM109 carrying the pBBR1-CYPLR plasmid or the pBBR1-alkR plasmid was overnight cultured at 37° C. and 125-150 rpm in 3 mL of LB medium containing 50 μg/mL kanamycin. The overnight culture was diluted 1000-fold in 3 mL of LB medium containing 50 μg/mL kanamycin and cultured at 37° C. 1% (v/v) methyl laurate was added to the culture at an O.D.600 of about 0.6 and a further incubation at 30° C. was carried out for 12 hours. The cell pellet obtained by centrifuging the abovementioned bacterial culture was washed and resuspended with PBS, and then subjected to protein expression analysis by sodium dodecyl sulfate polyacrylamide gel electrophoresis (SDS-PAGE) or carbon monoxide (CO) difference spectroscopy.
Samples of bacterial cells were mixed with sample buffer (50 mM Tris-HCl, pH 6.8, 100 mM dithiothreitol (DTT), 2% SDS, 0.1% bromophenol blue, 10% glycerol) and boiled for 10 minutes. […]
It was studied whether CYP153A expression in the recombinant E. coli carrying the reconstructed CYP153A operon from M. aquaeoli VT8 would be induced by medium-chain or long-chain fatty acid methyl esters. […] At 12 hours after the induction, the expression of CYP153A was analyzed by SDS-PAGE, and the protein molecular size and activity of the cytochrome P450 consisting of CYP153A, ferredoxin, and ferredoxin reductase were verified by carbon monoxide difference spectroscopy.

CCCCCCCCCCCCCC [n-tetradecane]
expression of red fluorescent protein (mean fluorescence intensity) compared to no rhamnose addition (AlkR protein [1]): induced significantly more expression of the red fluorescent protein
expression of red fluorescent protein in E. coli cells expressing both AlkL and AlkR proteins vs control groups (AlkR protein [1]; psb3C5-rha-weak alkL plasmid, 0.01% rhamnose 3 h then 1% (v/v) alkane 6 h, FIG. 15): more effective in inducing the expression of red fluorescent protein

C[C@H](O)[C@H](O)[C@@H](O)[C@@H](O)C=O [rhamnose, reference compound]
expression of red fluorescent protein (mean fluorescence intensity) compared to no rhamnose addition (AlkR protein [1]): induced significantly more expression of the red fluorescent protein

CCCCCCCC [n-octane]
number of E. coli cells induced to express red fluorescent protein (fluorescence distribution histograms) (AlkR protein [2]; 1% (v/v) alkane, 0 vs 6 h after induction, FIGS. 9A-9F): more E. coli cells were induced to express the red fluorescent protein
induction of cytochrome P450 with oxidative activity (1-octanol production, gas chromatogram) (CYP153A operon [3]): additional peak at the retention time of 1-octanol

CCCCCCCCCCCC(=O)OC [methyl laurate]
whole-cell carbon monoxide difference spectrum (400-500 nm) (CYP153A operon [4]; 12 h, FIGS. 12A-12B): absorption peak at about 450 nm
CYP153A expression by SDS-PAGE (CYP153A operon [4]; 12 h after induction, FIG. 11): expressed the CYP153A
expression of red fluorescent protein (mean fluorescence intensity) relative to control group (AlkR protein [2]; 1% (v/v) inducer, 0-12 h, recombinant E. coli JM109, vs untreated control, FIG. 8): induced the expression of red fluorescent protein
expression of red fluorescent protein in control groups (mock vector) vs non-induced groups (AlkR protein [1]; psb3C5-rha mock vector, 0.01% rhamnose 3 h then 1% (v/v) inducer 6 h, FIG. 15): induce significantly more expression of the red fluorescent protein

CCCCCCCCCCCCO [1-dodecanol]
inhibition of n-dodecane-induced red fluorescent protein expression (AlkR protein [2]; 0.1% or 1% (v/v) 1-dodecanol added with 1% n-dodecane inducer, 6 and 12 h, FIG. 10): did not inhibit the expression of red fluorescent protein

— US11162117B2, “Whole-cell catalytic system and applications thereof” (National Taiwan University, priority 2018, dated 2021)
